This passage reports Ki results from ChEMBL document CHEMBL1132397, “Synthesis of 5,8-dimethoxy-3-hydroxy-4-quinolone, a reported inhibitor of HIV RT, and evidence the original proposed structure was incorrect” (Bioorg Med Chem Lett, 1999).

The target in assay [1] is Human immunodeficiency virus type 1 protease (Human immunodeficiency virus 1, UniProt Q72874). Put plainly: Inhibition of RNA-dependent DNA polymerase activity against wild-type HIV-1 RT at a concentration of 100 uM; No inhibition.
The target in assay [2] is T1, Human immunodeficiency virus type 1 reverse transcriptase (Human immunodeficiency virus 1, UniProt Q72547). Put plainly: Inhibitory activity against reverse transcriptase of HIV-1.
Assay [3] deals with T1, Human immunodeficiency virus type 1 reverse transcriptase. Put plainly: Inhibitory activity against reverse transcriptase of HIV; Inactive.

The structures appear in SMILES notation.

What is called Ki is a dissociation constant, usually derived from enzyme kinetics or from competition with a known ligand. High values mean a looser hold on the target, low ones a stronger hold on the target. As for `COc1ccc(OC)c2c(O)c(O)cnc12`, the inhibition constant (Ki) result in assay [1] is recorded as “Not Active”.
Compound `Oc1cnc2c(O)ccc(O)c2c1O` yielded an inhibition constant (Ki) in assay [2] of 490 nM.
On to `COc1cnc2c(OC)ccc(OC)c2c1O`, for which the inhibition constant Ki result in assay [3] is given as “Not Active”.
